Laboratory results from PubChem BioAssay (NCI).
Values joined by “and” are separate entries in the source; they are usually repeats but may differ in a detail not shown here. Equal entries are not always repeated.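 48-hour exposure; five concentrations; linearly interpolated endpoints. GI50 = concentration required for 50% inhibition of growth. TGI marks complete inhibition of growth.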

Columns and labels:
Assay in all cases: NCI tumour cell line growth inhibition, 48 h
EKVX NSCLC = tested on: EKVX NSCLC
SF-539 CNS = tested on: SF-539 CNS
SF-295 CNS = tested on: SF-295 CNS
BT-549 breast = tested on: BT-549 breast
MCF7 breast = tested on: MCF7 breast
HCC-2998 colon = tested on: HCC-2998 colon
CCRF-CEM leukemia = tested on: CCRF-CEM leukemia
NCI/ADR-RES ovarian = tested on: NCI/ADR-RES ovarian
LOX IMVI melanoma = tested on: LOX IMVI melanoma
NCI-H23 lung = tested on: NCI-H23 lung

Compound	GI50 (EKVX NSCLC)	TGI (EKVX NSCLC) [µM]	GI50 (SF-539 CNS)	TGI (SF-539 CNS) [µM]	GI50 (SF-295 CNS)	TGI (SF-295 CNS) [µM]	GI50 (BT-549 breast)	TGI (BT-549 breast) [µM]	GI50 (MCF7 breast)	TGI (MCF7 breast) [µM]	GI50 (HCC-2998 colon)	TGI (HCC-2998 colon) [µM]	GI50 (CCRF-CEM leukemia)	TGI (CCRF-CEM leukemia) [µM]	GI50 (NCI/ADR-RES ovarian)	TGI (NCI/ADR-RES ovarian) [µM]	GI50 (LOX IMVI melanoma) [µM]	TGI (LOX IMVI melanoma) [µM]	GI50 (NCI-H23 lung)	TGI (NCI-H23 lung) [µM]
O=C(O)C[C@H](O)C[C@H](O)/C=C/c1c(C2CC2)nc2ccccc2c1-c1ccc(F)cc1	23.1 µM and 5.16 µM	> 100	43.7 µM and 5.46 µM	> 100	2.1 µM and 0.526 µM	> 100	18.1 µM and 4.11 µM	> 100	54.7 µM and > 21.9 µM	> 100	42 µM and 49.9 µM	> 100	58.4 µM and 25.8 µM	> 100	2.82 µM and 0.86 µM	> 100	1.33	13.9	8.75 µM and 3.31 µM	> 100
COc1ccccc1/C=C1\COc2ccc(-c3ccccc3)cc2C1=O	5.59 µM	> 100	2.61 µM	6.44	4 µM	85.4	1.55 µM	4.89	2.4 µM	–	2.63 µM	6.92	2.08 µM	15.2	3.66 µM	23.6	2.97	10.7	4.38 µM	59.3
Cn1cnc(N)c(N=O)c1=O	–	> 10	–	> 10	–	> 10	–	> 10	–	> 10	–	> 10	–	> 10	–	> 10	–	> 10	–	> 10
COc1ccc(-c2c(C)c(C(=O)O)nc(-c3ccc4c(O)c(OC)c5c(c4n3)=NC(C)(C)N=5)c2N)c(O)c1OC	–	> 100	–	35.5	–	38.6	–	82.7	–	> 100	–	35.7	–	24.4	–	58	–	25.7	–	6.95
Fc1ccc(-c2ncn(C3CCNCC3)c2-c2ccnc(Oc3ccc4c(c3)OCO4)n2)cc1	> 25 µM	> 25	> 25 µM	> 25	> 20.1 µM	> 25	> 21.3 µM	> 25	9.14 µM	> 25	11.9 µM	> 25	> 25 µM	> 25	> 25 µM	> 25	12.3	> 25	> 25 µM	> 25
c1ccc(-c2nn3c(c2-c2ccnc4cc(OCCN5CCOCC5)ccc24)CCC3)nc1	> 100 µM	> 100	> 100 µM	> 100	> 100 µM	> 100	> 79.9 µM	> 100	12.9 µM	> 100	> 100 µM	> 100	> 95.9 µM	> 100	52.4 µM	> 100	> 45.6	> 100	> 80.6 µM	> 100
O=[N+]([O-])c1cc[n+]([O-])c2ccccc12	1.22 µM	3.98	0.181 µM	0.541	0.2 µM	0.627	0.2 µM	0.728	0.047 µM	2.2	0.347 µM	0.8	1.55 µM	5.27	0.965 µM	4.86	0.156	0.418	0.328 µM	1.56
O=[N+]([O-])c1ccc(NN=C2CN3CCN(C2)c2ccccc23)c([N+](=O)[O-])c1	–	> 100	–	> 100	–	> 100	–	> 100	–	> 100	–	> 100	–	> 100	–	> 100	–	> 100	–	> 100
[2H]C([2H])([2H])NC(=O)c1nnc(NC(=O)C2CC2)cc1Nc1cccc(-c2ncn(C)n2)c1OC	81.4 µM	> 100	61.1 µM	> 100	53.4 µM	> 100	23.2 µM	> 100	92.9 µM	> 100	96.3 µM	> 100	19.8 µM	> 100	51.3 µM	> 100	14.5	> 100	91.9 µM	> 100
C1=C(c2ccccc2)C(N2CCOCC2)Oc2ccccc21 (centres undefined)	–	> 100	–	> 100	–	> 100	–	> 100	–	> 100	–	> 100	–	> 100	–	> 100	–	> 100	–	> 100
